The text below walks through data of US6911468B2, “Tyrosine phosphatase inhibitors” (Takeda Chemical Industries, Ltd., priority 2000, dated 2005).

One series addresses T1, PTP1B (Homo sapiens, UniProt P18031).
T1 construct: in order to express 1-321 amino acid region encoding enzyme active domain of PTP1B; made in house; host or cells: E. coli BL21 DE3 pLysS
T1 sequence (P18031 1-321): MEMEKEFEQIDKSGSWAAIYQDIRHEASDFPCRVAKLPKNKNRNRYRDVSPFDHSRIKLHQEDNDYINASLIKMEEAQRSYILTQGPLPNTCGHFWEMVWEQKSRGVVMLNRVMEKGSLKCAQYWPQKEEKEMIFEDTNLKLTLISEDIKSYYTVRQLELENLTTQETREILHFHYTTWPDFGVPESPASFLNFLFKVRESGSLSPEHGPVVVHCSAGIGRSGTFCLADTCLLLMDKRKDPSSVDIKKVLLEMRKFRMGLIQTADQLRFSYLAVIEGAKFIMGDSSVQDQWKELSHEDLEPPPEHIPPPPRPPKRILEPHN
The series can be described thus: Measurement of PTP1B Inhibitory Activity (dephosphorylation of p-nitrophenylphosphate, absorbance at 405 nm). As to conditions: PTP1B enzyme active domain (1-321 amino acid, 6 histidine residues at C-terminal), pNPP substrate, pH 6.5, 37° C. for 1 hour. In kind it is biochemical. On the procedure: Based on the sequence of human PTP-1B registered in Genbank (M31724) database, primer 1 and primer 2 were synthesized, and PTP1B cDNA was amplified from human skeletal muscle cDNA library (Clonetech, Inc. HL5002a) according to PCR method using these primers. The cycle of reactions at 98° C. for 10 seconds, at 58° C. for 30 seconds and at 72° C. for 90 seconds was repeated 35 cycles. The PCR reaction product (1322 bp) was cloned to pT7 Blue-T vector (Novagen, Inc.) to identify the base sequence.
Human PTP 1B cDNA (1322 bp) (100 ng) was amplified with primer 3 and primer 4 in order to express 1-321 amino acid region encoding enzyme active domain of PTP1B. The PCR reaction product (976 bp) was cloned to pT7 Blue-T vector (Novagen, Inc.) to identify the base sequence.
The pT7 Blue-T vector-human PTP1B cDNA (976 bp) was cleaved with restriction enzymes NdeI and SalI (Takara Shuzo Co., Ltd.) and subjected to electrophoresis using 0.7% agarose gel, and a 969 bp fragment was excised and purified. The fragment was introduced into pET32a (+) vector (Novagen, Inc.) cleaved with restriction enzymes NdeI and XhoI (Takara Shuzo Co., Ltd.), to constitute a vector pET32a (+)-human PTP1B cDNA (969 bp), which expresses PTP1B (321 amino acid) with 6 histidine residues binded to a C-terminal thereof under a control of T7 lac promotor.
E.coli BL21 DE3 pLysS (Novagen, Inc.) was transformed with the pET32a (+)-human PTP 1B cDNA (969 bp) to give an ampicillin (50 μg/ml) resistant bacterium. This was shake cultured at 37° C. using 5L of 2xYT medium (ampicillin (50 μg/ml)). When OD600nm reached to 0.5, IPTG (Isopropyl b-D-Thiogalactoside) was added to the culture medium so as to be 1 mM in order to induce the expression of protein, and this medium was further cultured at 37° C. overnight. The bacterium was collected by centrifugation (8000 rpm, 10 minutes, 4° C.).
The bacterium was suspended in lysis buffer (50 ml) (20 mM Tris HCl (pH 8.0), 0.5 M NaCl, 1 mM PMSF, 5 mM benzamidine, Lysozyme 5 mg) and crushed by sonication. To the supernatant after centrifuging (12000 rpm, 10 minutes, 4° C.) was added imidazole so as to be 50 mM and the mixture was mixed with His Bind resin (Novagen, Inc.) binded with Ni ion (4° C., overnight). The mixture was washed with 200 ml of (20 mM Tris HCl (pH 8.0), 0.5 M NaCl, 1 mM PMSF, 5 mM benzamidine, 50 mM imidazole), eluted with (20 mM Tris HCl (pH 8.0), 0.5 M NaCl, 1 mM PMSF, 5 mM benzamidine, 400 mM imidazole) and concentrated by centrifugation using Ultrafree-15 Biomax-50 (MILLIPORE Corp.) (11 mg/ml, 4ml). The purified protein (PTP1B) was identified by Western blotting method using SDS-PAGE, coomassie Blue stain and anti-PTP1B antibody (UBI Inc.).
The PTP1B inhibitory activity of the test compound was evaluated by measuring the ability of the test compound to dephosphorylate p-nitrophenylphosphate (pNPP) (a change of the absorbance at 405 nm).
To a buffer for measurement of the activity (0.1 M sodium acetate (pH 6.5), 1 mM EDTA, 10 mM DTT) (10 ml) was added PTP1B enzyme solution (2 μl) and the mixture was added to each well of a 96-well microtiter plate (100 μl each). A solution of the test compound in DMSO (10 μl) and 2 mM pNPP/the buffer for measurement of the activity (90 μl) were then added to each well, and the absorbance at 405 nm was measured. After keeping at 37° C. for 1 hour, the absorbance was measured again to evaluate a change of the absorbance. Regarding the change of the absorbance in the absence of the test compound as 100%, the concentration of the compound necessary for 50% inhibition (IC50 value) was calculated.

Where only a bound is given, the exact number is not on record here.

For `O=C(O)/C=C/c1ccc(-c2cccn2-c2ccc(/C=C/C(=O)O)cc2)cc1` [Example 12, (E)-3-[4-(1-{4-[(E)-3-Hydroxy-3-oxo-1-propenyl]phenyl}-1H-pyrrol-2-yl)phenyl]-2-propenoic acid], the melting point (in general, the temperature of the solid-liquid transition) is above 300 °C. Further, the midpoint of inhibition against PTP1B, the IC50, lay at 3100 nM.
Regarding `Cc1ccc(-c2ccc(O[C@H](Cc3ccccc3)C(=O)O)cc2)n1CCc1ccc(Br)cc1` [Example 52, (2R)-2-(4-{1-[2-(4-bromophenyl)ethan-1-yl]-5-methyl-1H-pyrrol-2-yl}phenoxy)-3-phenylpropanoic acid], inhibition against PTP1B was half-maximal at 310 nM (IC50). That is a sub-micromolar value.
Still for that read-out and setting: then `Cc1ccc(-c2ccc(O[C@H](Cc3ccccc3)C(=O)O)cc2)n1Cc1cccc(Oc2ccccc2)c1` [Example 54, (2R)-2-{4-[1-(3-phenoxybenzyl)-5-methyl-1H-pyrrol-2-yl]phenoxy}-3-phenylpropanoic acid], with 310 nM.
Still for that read-out and setting: then `CCCCCCCCCCCCn1c(C)ccc1-c1ccc(O[C@H](Cc2ccccc2)C(=O)O)cc1` [Example 56, (2R)-2-[4-(1-Dodecyl-5-methyl-1H-pyrrol-2-yl)phenoxy]-3-phenylpropanoic acid], with 130 nM; and `CCCCCCCCn1c(C)ccc1-c1ccc(O[C@H](Cc2ccccc2)C(=O)O)cc1` [Example 58, (2R)-2-[4-(5-Methyl-1-octyl-1H-pyrrol-2-yl)phenoxy]-3-phenylpropanoic acid], with 340 nM.
The same measure, in the same setting: then `CCCCCCCCCn1c(C)ccc1-c1ccc(O[C@H](Cc2ccccc2)C(=O)O)cc1` [Example 60, (2R)-2-[4-(5-Methyl-1-nonyl-1H-pyrrol-2-yl)phenoxy]-3-phenylpropanoic acid], with 360 nM.
`CCCCCCCCCCn1c(C)ccc1-c1ccc(O[C@H](Cc2ccccc2)C(=O)O)cc1` [Example 62, (2R)-2-[4-(1-Decyl-5-methyl-1H-pyrrol-2-yl)phenoxy]-3-phenylpropanoic acid]: half-maximal inhibition at PTP1B (IC50) required 210 nM. This IC50 is about 1.7-fold lower than that of the compound before.
The same measure, in the same setting: then `CCCCCCCCCCCn1c(C)ccc1-c1ccc(O[C@H](Cc2ccccc2)C(=O)O)cc1` [Example 64, (2R)-2-[4-(5-Methyl-1-undecyl-1H-pyrrol-2-yl)phenoxy]-3-phenylpropanoic acid], with 230 nM; and `CCCCCCCCCCCCCn1c(C)ccc1-c1ccc(O[C@H](Cc2ccccc2)C(=O)O)cc1` [Example 66, (2R)-2-[4-(5-Methyl-1-tridecyl-1H-pyrrol-2-yl)phenoxy]-3-phenylpropanoic acid], with 170 nM.
Same read-out and setting: then `CCCCCCCCc1ccc(-n2c(C)ccc2-c2ccc(O[C@H](Cc3ccccc3)C(=O)O)cc2)cc1` [Example 94, Sodium (2R)-2-([4-[1-(4-octylphenyl)-5-methyl-1H-pyrrol-2-yl]phenyl]oxy)-3-phenylpropanoate], with 90 nM.
The compound `CCCCCCCCCCNC(=O)c1cc(-c2ccc(O[C@H](Cc3ccccc3)C(=O)O)cc2)n(CCc2ccc(Br)cc2)c1C` [Example 118, (2R)-2-{4-[1-(4-Bromophenethyl)-4-(decylaminocarbonyl)-5-methyl-1H-pyrrol-2-yl]phenoxy}-3-phenylpropanoic acid] showed a melting point of 132 to 133 °C.
